Experiments:
Assay type in all cases: in vivo
plants = assay: Test D post-emergence, other plants of Tables D2 and D4; details: for ALOMY damage rating (100=total damage to plant; 0=no damage to plant) / AVEFA damage rating (100=total damage to plant; 0=no damage to plant) / BEAVA damage rating (100=total damage to plant; 0=no damage to plant) / BROTE damage rating (100=total damage to plant; 0=no damage to plant) / BRSNN damage rating (100=total damage to plant; 0=no damage to plant) / CHEAL damage rating (100=total damage to plant; 0=no damage to plant) / GALAP damage rating (100=total damage to plant; 0=no damage to plant) / HORVW damage rating (100=total damage to plant; 0=no damage to plant) / KCHSC damage rating (100=total damage to plant; 0=no damage to plant) / LOLPE damage rating (100=total damage to plant; 0=no damage to plant) / POAAN damage rating (100=total damage to plant; 0=no damage to plant) / POLCO damage rating (100=total damage to plant; 0=no damage to plant) / SINAR damage rating (100=total damage to plant; 0=no damage to plant) / STEME damage rating (100=total damage to plant; 0=no damage to plant) / VERPE damage rating (100=total damage to plant; 0=no damage to plant): "Cereals" Postemergent, evaluated after 15 d; for damage to plant (100=total damage to plant; 0=no damage to plant), ABUTH / damage to plant (100=total damage to plant; 0=no damage to plant), AMARE / damage to plant (100=total damage to plant; 0=no damage to plant), BIDPI / damage to plant (100=total damage to plant; 0=no damage to plant), BRAPL / damage to plant (100=total damage to plant; 0=no damage to plant), CYPES / damage to plant (100=total damage to plant; 0=no damage to plant), DIGSA / damage to plant (100=total damage to plant; 0=no damage to plant), ECHCG / damage to plant (100=total damage to plant; 0=no damage to plant), ELEIN / damage to plant (100=total damage to plant; 0=no damage to plant), EPHHL / damage to plant (100=total damage to plant; 0=no damage to plant), GLXMA / damage to plant (100=total damage to plant; 0=no damage to plant), IPOHE / damage to plant (100=total damage to plant; 0=no damage to plant), ORYSA / damage to plant (100=total damage to plant; 0=no damage to plant), PANMI / damage to plant (100=total damage to plant; 0=no damage to plant), SETFA / damage to plant (100=total damage to plant; 0=no damage to plant), SIDSP / damage to plant (100=total damage to plant; 0=no damage to plant), SORVU: post-emergence
Description: A formulation containing 50 g/L of the test chemical was prepared by dissolving the active ingredient in a mixture of organic solvents and emulsifier, details of which are provided in the table. This formulation was then mixed with a small, variable amount of acetone to aid dissolution, before addition of a 0.2% v/v aqueous solution of an adjuvant, as the aqueous diluent, to form an aqueous spray solution which contains a predetermined concentration of the active ingredient.
This aqueous spray solution was then sprayed onto plants including maize and wheat that had been seed treated with a herbicide safener, after one day's cultivation (for pre-emergence) or after about 12 days' cultivation (for post-emergence). The plants were grown from seeds sown in standard soil, placed in a glasshouse under controlled conditions (at 24/18° C. or 20/16° C., day/night; 16 h light; 65% humidity). After spray application the plants were then grown in a glasshouse under the same conditions and watered twice daily. After 15 d for post-emergence and 20 DAA for pre-emergence the test was evaluated (100=total damage to plant; 0=no damage to plant).

corn (Zea mays, ZEAMX) = assay: Test A post-emergence, corn; details: after 13 d
In short: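 Plants were grown 8 d in a glasshouse (24/16° C day/night, 14 h light, 65% humidity), then sprayed post-emergence at 15.625, 62.5 or 250 g/ha in acetone/water (50:50) with 0.5% Tween 20. Damage was scored visually after 13 d (0 = none, 100 = total).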

[1] = tested on: barnyardgrass (Echinochloa crus-galli, ECHCG); assay: Test A pre-emergence, barnyardgrass; details: after 13 d
In short: (§1)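 Each compound is applied pre-emergence at 15.625, 62.5 or 250 g/ha, one day after seeds are sown in standard soil. Plants are then grown in a glasshouse at 24/16° C. with 14 h light and 65% humidity, and injury is scored 0–100 at 13 d.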

[2] = tested on: ivy-leaved morning glory (Ipomoea hederacea, IPOHE); assay: Test A pre-emergence, ivy-leaved morning glory; details: after 13 d
In short: as §1

[3] = tested on: velvetleaf (Abutilon theophrasti, ABUTH); assay: Test A pre-emergence, velvetleaf; details: after 13 d
In short: as §1

## CN1CC(c2cc(C(F)(F)F)n(C)n2)C(C(=O)Nc2cccc(F)c2F)C1=O (racemic) [Compound 3]
plants; Rates 130
  ALOMY damage rating (100=total damage to plant; 0=no damage to plant): 0
  AVEFA damage rating (100=total damage to plant; 0=no damage to plant): 0
  BEAVA damage rating (100=total damage to plant; 0=no damage to plant): 0
  BROTE damage rating (100=total damage to plant; 0=no damage to plant): 0
  BRSNN damage rating (100=total damage to plant; 0=no damage to plant): 10
  CHEAL damage rating (100=total damage to plant; 0=no damage to plant): 0
  GALAP damage rating (100=total damage to plant; 0=no damage to plant): 0
  HORVW damage rating (100=total damage to plant; 0=no damage to plant): 0
  KCHSC damage rating (100=total damage to plant; 0=no damage to plant): 0
  LOLPE damage rating (100=total damage to plant; 0=no damage to plant): 0
  POAAN damage rating (100=total damage to plant; 0=no damage to plant): 0
  POLCO damage rating (100=total damage to plant; 0=no damage to plant): 0
  SINAR damage rating (100=total damage to plant; 0=no damage to plant): 0
  STEME damage rating (100=total damage to plant; 0=no damage to plant): 0
  VERPE damage rating (100=total damage to plant; 0=no damage to plant): 0
plants; Rates 250
  ALOMY damage rating (100=total damage to plant; 0=no damage to plant): 0
  AVEFA damage rating (100=total damage to plant; 0=no damage to plant): 0
  BEAVA damage rating (100=total damage to plant; 0=no damage to plant): 10
  BROTE damage rating (100=total damage to plant; 0=no damage to plant): 0
  BRSNN damage rating (100=total damage to plant; 0=no damage to plant): 10
  CHEAL damage rating (100=total damage to plant; 0=no damage to plant): 0
  GALAP damage rating (100=total damage to plant; 0=no damage to plant): 0
  HORVW damage rating (100=total damage to plant; 0=no damage to plant): 0
  KCHSC damage rating (100=total damage to plant; 0=no damage to plant): 0
  LOLPE damage rating (100=total damage to plant; 0=no damage to plant): 0
  POAAN damage rating (100=total damage to plant; 0=no damage to plant): 20
  POLCO damage rating (100=total damage to plant; 0=no damage to plant): 0
  SINAR damage rating (100=total damage to plant; 0=no damage to plant): 0
  STEME damage rating (100=total damage to plant; 0=no damage to plant): 0
  VERPE damage rating (100=total damage to plant; 0=no damage to plant): 0
plants; Rates 500
  ALOMY damage rating (100=total damage to plant; 0=no damage to plant): 20
  AVEFA damage rating (100=total damage to plant; 0=no damage to plant): 30
  BEAVA damage rating (100=total damage to plant; 0=no damage to plant): 10
  BROTE damage rating (100=total damage to plant; 0=no damage to plant): 0
  BRSNN damage rating (100=total damage to plant; 0=no damage to plant): 0
  CHEAL damage rating (100=total damage to plant; 0=no damage to plant): 0
  GALAP damage rating (100=total damage to plant; 0=no damage to plant): 0
  HORVW damage rating (100=total damage to plant; 0=no damage to plant): 30
  KCHSC damage rating (100=total damage to plant; 0=no damage to plant): 0
  LOLPE damage rating (100=total damage to plant; 0=no damage to plant): 0
  POAAN damage rating (100=total damage to plant; 0=no damage to plant): 50
  POLCO damage rating (100=total damage to plant; 0=no damage to plant): 0
  SINAR damage rating (100=total damage to plant; 0=no damage to plant): 10
  STEME damage rating (100=total damage to plant; 0=no damage to plant): 10
  VERPE damage rating (100=total damage to plant; 0=no damage to plant): 60
plants; rate 130, evaluated after 15 d
  damage to plant (100=total damage to plant; 0=no damage to plant), ABUTH: 0
  damage to plant (100=total damage to plant; 0=no damage to plant), AMARE: 0
  damage to plant (100=total damage to plant; 0=no damage to plant), BIDPI: 0
  damage to plant (100=total damage to plant; 0=no damage to plant), BRAPL: 40
  damage to plant (100=total damage to plant; 0=no damage to plant), CYPES: 0
  damage to plant (100=total damage to plant; 0=no damage to plant), DIGSA: 0
  damage to plant (100=total damage to plant; 0=no damage to plant), ECHCG: 40
  damage to plant (100=total damage to plant; 0=no damage to plant), ELEIN: 0
  damage to plant (100=total damage to plant; 0=no damage to plant), EPHHL: 0
  damage to plant (100=total damage to plant; 0=no damage to plant), GLXMA: 10
  damage to plant (100=total damage to plant; 0=no damage to plant), IPOHE: 0
  damage to plant (100=total damage to plant; 0=no damage to plant), ORYSA: 0
  damage to plant (100=total damage to plant; 0=no damage to plant), PANMI: 0
  damage to plant (100=total damage to plant; 0=no damage to plant), SETFA: 0
  damage to plant (100=total damage to plant; 0=no damage to plant), SIDSP: 0
  damage to plant (100=total damage to plant; 0=no damage to plant), SORVU: 0
plants; rate 250, evaluated after 15 d
  damage to plant (100=total damage to plant; 0=no damage to plant), ABUTH: 0
  damage to plant (100=total damage to plant; 0=no damage to plant), AMARE: 0
  damage to plant (100=total damage to plant; 0=no damage to plant), BIDPI: 0
  damage to plant (100=total damage to plant; 0=no damage to plant), BRAPL: 60
  damage to plant (100=total damage to plant; 0=no damage to plant), CYPES: 0
  damage to plant (100=total damage to plant; 0=no damage to plant), DIGSA: 10
  damage to plant (100=total damage to plant; 0=no damage to plant), ECHCG: 60
  damage to plant (100=total damage to plant; 0=no damage to plant), ELEIN: 0
  damage to plant (100=total damage to plant; 0=no damage to plant), EPHHL: 0
  damage to plant (100=total damage to plant; 0=no damage to plant), GLXMA: 10
  damage to plant (100=total damage to plant; 0=no damage to plant), IPOHE: 0
  damage to plant (100=total damage to plant; 0=no damage to plant), ORYSA: 0
  damage to plant (100=total damage to plant; 0=no damage to plant), PANMI: 0
  damage to plant (100=total damage to plant; 0=no damage to plant), SETFA: 0
  damage to plant (100=total damage to plant; 0=no damage to plant), SIDSP: 0
  damage to plant (100=total damage to plant; 0=no damage to plant), SORVU: 0
plants; rate 500, evaluated after 15 d
  damage to plant (100=total damage to plant; 0=no damage to plant), ABUTH: 0
  damage to plant (100=total damage to plant; 0=no damage to plant), AMARE: 10
  damage to plant (100=total damage to plant; 0=no damage to plant), BIDPI: 0
  damage to plant (100=total damage to plant; 0=no damage to plant), BRAPL: 70
  damage to plant (100=total damage to plant; 0=no damage to plant), CYPES: 10
  damage to plant (100=total damage to plant; 0=no damage to plant), DIGSA: 60
  damage to plant (100=total damage to plant; 0=no damage to plant), ECHCG: 80
  damage to plant (100=total damage to plant; 0=no damage to plant), ELEIN: 0
  damage to plant (100=total damage to plant; 0=no damage to plant), EPHHL: 0
  damage to plant (100=total damage to plant; 0=no damage to plant), GLXMA: 20
  damage to plant (100=total damage to plant; 0=no damage to plant), IPOHE: 0
  damage to plant (100=total damage to plant; 0=no damage to plant), ORYSA: 20
  damage to plant (100=total damage to plant; 0=no damage to plant), PANMI: 0
  damage to plant (100=total damage to plant; 0=no damage to plant), SETFA: 60
  damage to plant (100=total damage to plant; 0=no damage to plant), SIDSP: 0
  damage to plant (100=total damage to plant; 0=no damage to plant), SORVU: 0
Corn (Zea mays, ZEAMX); Post-Emergence at 15.625 g/ha
  damage to plant (100=total damage; 0=no damage) ZEAMX: 0
Corn (Zea mays, ZEAMX); Post-Emergence at 62.5 g/ha
  damage to plant (100=total damage; 0=no damage) ZEAMX: 50
Corn (Zea mays, ZEAMX); Post-Emergence at 250 g/ha
  damage to plant (100=total damage; 0=no damage) ZEAMX: 80
[1]; Pre-Emergence at 15.625 g/ha
  damage to plant (100=total damage; 0=no damage) ECHCG: 100
[1]; Pre-Emergence at 62.5 g/ha
  damage to plant (100=total damage; 0=no damage) ECHCG: 100
[1]; Pre-Emergence at 250 g/ha
  damage to plant (100=total damage; 0=no damage) ECHCG: 100
[2]; Pre-Emergence at 15.625 g/ha
  damage to plant (100=total damage; 0=no damage) IPOHE: 0
[2]; Pre-Emergence at 62.5 g/ha
  damage to plant (100=total damage; 0=no damage) IPOHE: 0
[2]; Pre-Emergence at 250 g/ha
  damage to plant (100=total damage; 0=no damage) IPOHE: 30
[3]; Pre-Emergence at 15.625 g/ha
  damage to plant (100=total damage; 0=no damage) ABUTH: 0
[3]; Pre-Emergence at 62.5 g/ha
  damage to plant (100=total damage; 0=no damage) ABUTH: 0
[3]; Pre-Emergence at 250 g/ha
  damage to plant (100=total damage; 0=no damage) ABUTH: 10

— patent publication US20220281848A1, “PYRAZOLE-SUBSTITUTED PYRROLIDINONES AS HERBICIDES” (FMC Corporation, priority 2019, published 2022)
